Assay results taken from the NIST ThermoML archive (doi:10.1016/j.jct.2006.10.008).

How the values were obtained:
[1] = excess molar enthalpy (molar enthalpy of mixing); xn = mol fraction of the nth substance listed; details: 298.15 K, 101 kPa, Liquid, Calvet calorimetry
[2] = xn = mol fraction of the nth substance listed; details: 298.15 K, 101 kPa, Liquid

CCOC=O [ethyl methanoate] + ClCCCl
Details	excess molar enthalpy [kcal/mol]	mass density [kg/m3]
[1], x1 = 0.0533	-0.0075	–
[1], x1 = 0.117	-0.0173	–
[1], x1 = 0.1872	-0.0268	–
[1], x1 = 0.2551	-0.0353	–
[1], x1 = 0.3201	-0.0432	–
[1], x1 = 0.3798	-0.05	–
[1], x1 = 0.4359	-0.0549	–
[1], x1 = 0.4835	-0.0584	–
[1], x1 = 0.5094	-0.0598	–
[1], x1 = 0.5591	-0.0598	–
[1], x1 = 0.6134	-0.0574	–
[1], x1 = 0.6735	-0.0546	–
[1], x1 = 0.7374	-0.0485	–
[1], x1 = 0.8	-0.0397	–
[1], x1 = 0.8714	-0.0283	–
[1], x1 = 0.9368	-0.0146	–
[2], x1 = 0.0571	–	1226.06
[2], x1 = 0.1212	–	1204.8
[2], x1 = 0.1793	–	1185.79
[2], x1 = 0.2317	–	1168.78
[2], x1 = 0.2946	–	1148.35
[2], x1 = 0.355	–	1128.9
[2], x1 = 0.4144	–	1109.76
[2], x1 = 0.465	–	1093.66
[2], x1 = 0.5294	–	1073.24
[2], x1 = 0.5889	–	1054.49
[2], x1 = 0.6485	–	1035.88
[2], x1 = 0.7065	–	1017.61
[2], x1 = 0.7648	–	999.52
[2], x1 = 0.8239	–	981.06
[2], x1 = 0.8823	–	962.96
[2], x1 = 0.9345	–	946.9

CCCOC=O [propyl methanoate] + ClCCCl
Details	excess molar enthalpy [kcal/mol]	mass density [kg/m3]
[1], x1 = 0.0489	-0.00894	–
[1], x1 = 0.1034	-0.0201	–
[1], x1 = 0.1594	-0.0337	–
[1], x1 = 0.2211	-0.0473	–
[1], x1 = 0.28	-0.0608	–
[1], x1 = 0.3363	-0.0734	–
[1], x1 = 0.3886	-0.0843	–
[1], x1 = 0.4382	-0.09338	–
[1], x1 = 0.483	-0.1003	–
[1], x1 = 0.5155	-0.104	–
[1], x1 = 0.5716	-0.1046	–
[1], x1 = 0.6361	-0.1004	–
[1], x1 = 0.7083	-0.08982	–
[1], x1 = 0.7725	-0.0749	–
[1], x1 = 0.8488	-0.0545	–
[1], x1 = 0.9302	-0.0292	–
[2], x1 = 0.0538	–	1223.09
[2], x1 = 0.1017	–	1203.75
[2], x1 = 0.1515	–	1184.04
[2], x1 = 0.2043	–	1163.71
[2], x1 = 0.2575	–	1143.76
[2], x1 = 0.3685	–	1103.98
[2], x1 = 0.4248	–	1084.54
[2], x1 = 0.4826	–	1065.09
[2], x1 = 0.5426	–	1045.46
[2], x1 = 0.6034	–	1026.11
[2], x1 = 0.6652	–	1006.9
[2], x1 = 0.7294	–	987.38
[2], x1 = 0.794	–	968.29
[2], x1 = 0.8599	–	949.22
[2], x1 = 0.9286	–	929.85

ClCCCCCCl [1,5-dichloropentane] + CCCCOC=O
Details	excess molar enthalpy [kcal/mol]	mass density [kg/m3]
[1], x2 = 0.0722	0.000717	–
[1], x2 = 0.1463	-0.000837	–
[1], x2 = 0.2242	-0.0054	–
[1], x2 = 0.2989	-0.0111	–
[1], x2 = 0.3685	-0.0188	–
[1], x2 = 0.4319	-0.0268	–
[1], x2 = 0.4894	-0.0315	–
[1], x2 = 0.5395	-0.0354	–
[1], x2 = 0.5701	-0.037	–
[1], x2 = 0.5843	-0.0369	–
[1], x2 = 0.6266	-0.0344	–
[1], x2 = 0.6861	-0.0311	–
[1], x2 = 0.7462	-0.0271	–
[1], x2 = 0.8107	-0.0216	–
[1], x2 = 0.8755	-0.0156	–
[1], x2 = 0.9382	-0.00894	–
[2], x2 = 0.0753	–	1081.49
[2], x2 = 0.1366	–	1070.16
[2], x2 = 0.2613	–	1046.7
[2], x2 = 0.3251	–	1034.45
[2], x2 = 0.3849	–	1022.81
[2], x2 = 0.4446	–	1011
[2], x2 = 0.5039	–	999.1
[2], x2 = 0.6199	–	975.33
[2], x2 = 0.676	–	963.59
[2], x2 = 0.732	–	951.7
[2], x2 = 0.787	–	939.85
[2], x2 = 0.841	–	928.06
[2], x2 = 0.8939	–	916.34
[2], x2 = 0.9477	–	904.29

COC=O [methyl methanoate] + ClCCCl
Details	excess molar enthalpy [kcal/mol]	mass density [kg/m3]
[1], x1 = 0.0754	0.00636	–
[1], x1 = 0.1373	0.011	–
[1], x1 = 0.1901	0.0152	–
[1], x1 = 0.2508	0.019	–
[1], x1 = 0.3109	0.0219	–
[1], x1 = 0.3728	0.0238	–
[1], x1 = 0.4325	0.0247	–
[1], x1 = 0.4874	0.0246	–
[1], x1 = 0.5372	0.024	–
[1], x1 = 0.5928	0.0226	–
[1], x1 = 0.6569	0.0206	–
[1], x1 = 0.7322	0.0175	–
[1], x1 = 0.8084	0.0138	–
[1], x1 = 0.8844	0.00951	–
[1], x1 = 0.9514	0.0049	–
[2], x1 = 0.0778	–	1227.3
[2], x1 = 0.1458	–	1211.22
[2], x1 = 0.2144	–	1194.43
[2], x1 = 0.2795	–	1177.71
[2], x1 = 0.3474	–	1160.37
[2], x1 = 0.4099	–	1143.76
[2], x1 = 0.4725	–	1126.96
[2], x1 = 0.5316	–	1110.73
[2], x1 = 0.5888	–	1094.68
[2], x1 = 0.6463	–	1077.99
[2], x1 = 0.6998	–	1062.25
[2], x1 = 0.753	–	1046.16
[2], x1 = 0.8045	–	1030.32
[2], x1 = 0.8548	–	1014.49
[2], x1 = 0.9043	–	998.6
[2], x1 = 0.9525	–	982.78

ClCCCCCl [1,4-dichlorobutane] + COC=O
Details	excess molar enthalpy [kcal/mol]	mass density [kg/m3]
[1], x2 = 0.1071	0.0424	–
[1], x2 = 0.2326	0.08	–
[1], x2 = 0.3559	0.1062	–
[1], x2 = 0.4541	0.1196	–
[1], x2 = 0.5426	0.1239	–
[1], x2 = 0.5971	0.123	–
[1], x2 = 0.6515	0.1218	–
[1], x2 = 0.7083	0.1165	–
[1], x2 = 0.7662	0.108	–
[1], x2 = 0.8103	0.09393	–
[1], x2 = 0.8803	0.0755	–
[1], x2 = 0.9274	0.0548	–
[1], x2 = 0.9702	0.032	–
[2], x2 = 0.1002	–	1123.14
[2], x2 = 0.1967	–	1112.22
[2], x2 = 0.2763	–	1102.15
[2], x2 = 0.3523	–	1092.16
[2], x2 = 0.4263	–	1081.69
[2], x2 = 0.4898	–	1072.05
[2], x2 = 0.5567	–	1061.23
[2], x2 = 0.615	–	1051.3
[2], x2 = 0.6692	–	1041.41
[2], x2 = 0.7199	–	1031.71
[2], x2 = 0.7663	–	1022.34
[2], x2 = 0.8116	–	1012.65
[2], x2 = 0.8535	–	1003.36
[2], x2 = 0.8907	–	994.7
[2], x2 = 0.9302	–	985.1
[2], x2 = 0.9657	–	976.07

ClCCCCCl [1,4-dichlorobutane] + CCCCOC=O
Details	excess molar enthalpy [kcal/mol]	mass density [kg/m3]
[1], x2 = 0.0614	-0.00275	–
[1], x2 = 0.1294	-0.00724	–
[1], x2 = 0.1998	-0.0131	–
[1], x2 = 0.2674	-0.0218	–
[1], x2 = 0.3309	-0.0293	–
[1], x2 = 0.3925	-0.039	–
[1], x2 = 0.4407	-0.0473	–
[1], x2 = 0.4897	-0.0533	–
[1], x2 = 0.5404	-0.0542	–
[1], x2 = 0.5969	-0.0539	–
[1], x2 = 0.6592	-0.0513	–
[1], x2 = 0.7249	-0.0461	–
[1], x2 = 0.795	-0.0386	–
[1], x2 = 0.8656	-0.028	–
[1], x2 = 0.9356	-0.0149	–
[2], x2 = 0.0624	–	1118.28
[2], x2 = 0.1208	–	1103.88
[2], x2 = 0.1776	–	1089.9
[2], x2 = 0.2372	–	1075.3
[2], x2 = 0.346	–	1048.8
[2], x2 = 0.4096	–	1033.38
[2], x2 = 0.4679	–	1019.27
[2], x2 = 0.5213	–	1006.41
[2], x2 = 0.6434	–	977.11
[2], x2 = 0.7039	–	962.64
[2], x2 = 0.7624	–	948.68
[2], x2 = 0.821	–	934.76
[2], x2 = 0.8802	–	920.71
[2], x2 = 0.9398	–	906.62

CCCCOC=O [butyl methanoate] + ClCCCl
Details	excess molar enthalpy [kcal/mol]	mass density [kg/m3]
[1], x1 = 0.0414	-0.00954	–
[1], x1 = 0.0923	-0.0212	–
[1], x1 = 0.1436	-0.0343	–
[1], x1 = 0.1984	-0.0481	–
[1], x1 = 0.2527	-0.0619	–
[1], x1 = 0.3048	-0.075	–
[1], x1 = 0.3561	-0.08504	–
[1], x1 = 0.4041	-0.09405	–
[1], x1 = 0.4493	-0.1003	–
[1], x1 = 0.4629	-0.1006	–
[1], x1 = 0.5202	-0.1025	–
[1], x1 = 0.5856	-0.1005	–
[1], x1 = 0.6594	-0.09278	–
[1], x1 = 0.7406	-0.0785	–
[1], x1 = 0.829	-0.0569	–
[1], x1 = 0.9165	-0.0319	–
[2], x1 = 0.0446	–	1222.63
[2], x1 = 0.087	–	1201.85
[2], x1 = 0.1314	–	1180.87
[2], x1 = 0.1786	–	1159.63
[2], x1 = 0.2266	–	1138.77
[2], x1 = 0.277	–	1117.89
[2], x1 = 0.3837	–	1076.58
[2], x1 = 0.4403	–	1056.07
[2], x1 = 0.5	–	1035.47
[2], x1 = 0.5622	–	1014.9
[2], x1 = 0.6248	–	995.09
[2], x1 = 0.6931	–	974.48
[2], x1 = 0.7645	–	953.92
[2], x1 = 0.8389	–	933.51

ClCCCCCl [1,4-dichlorobutane] + CCOC=O
Details	excess molar enthalpy, [1] [kcal/mol]	mass density, [2] [kg/m3]
x2 = 0.0774	–	1120.56
x2 = 0.083	0.0262	–
x2 = 0.1549	–	1107.96
x2 = 0.1706	0.042	–
x2 = 0.229	–	1095.35
x2 = 0.256	0.0527	–
x2 = 0.2982	–	1083.08
x2 = 0.3368	0.0584	–
x2 = 0.3653	–	1070.71
x2 = 0.4094	0.0582	–
x2 = 0.4302	–	1058.33
x2 = 0.473	0.055	–
x2 = 0.4921	–	1046.05
x2 = 0.5279	0.0505	–
x2 = 0.5517	–	1033.83
x2 = 0.5977	0.0395	–
x2 = 0.6131	–	1020.82
x2 = 0.6452	0.034	–
x2 = 0.6683	–	1008.67
x2 = 0.6966	0.025	–
x2 = 0.7211	–	996.7
x2 = 0.7477	0.0167	–
x2 = 0.7717	–	984.84
x2 = 0.803	0.0108	–
x2 = 0.8212	–	973.13
x2 = 0.8543	0.00633	–
x2 = 0.8674	–	961.66
x2 = 0.907	0.00373	–
x2 = 0.9134	–	949.8
x2 = 0.9569	0.00222	938.37
